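Growth conditions: 96-well plates. Treatment: test compound, 48 hours, 5 concentrations. Analysis: linear interpolation between bracketing concentrations; unreached endpoints set to highest concentration. GI50 marks 50% less growth. At the TGI there is no net growth.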 Some results are limits rather than exact numbers.

Some test systems named below: SNB-19 CNS; MDA-MB-435; M14 melanoma; UACC-257 melanoma; SF-539 CNS; NCI/ADR-RES ovarian; SF-268 CNS; BT-549 breast; ACHN renal; SK-MEL-2 melanoma; OVCAR-3 ovarian; HS 578T breast; HOP-62 NSCLC.
Assay in all cases: DTP human tumour cell line panel, 48 h

With `CC(=O)NC(c1nc2cc(C)c(C)cc2[nH]1)c1nc2cc(C)c(C)cc2[nH]1`, the total growth inhibition concentration (TGI) in the experiment with SNB-19 CNS is > 100 µM; in the experiment with MDA-MB-435, 42.3 µM; in the experiment with M14 melanoma it was > 100 µM; with UACC-257 melanoma, 71.1 µM; with SF-539 CNS, 30.5 µM; with NCI/ADR-RES ovarian, 89.2 µM. In addition, the TGI in the experiment on SF-268 CNS was > 100 µM; in the experiment with BT-549 breast it was 61.6 µM; with ACHN renal, > 100 µM; in the experiment with SK-MEL-2 melanoma, > 100 µM; with OVCAR-3 ovarian, 42.2 µM; in the experiment on HS 578T breast it was 79.2 µM.

As for `NC(=O)CCC(N=C(N)c1csc(C2OC(CO)C(O)C2O)n1)C(=O)O` (centres undefined), the concentration for total growth inhibition (TGI) in the experiment with M14 melanoma, in the experiment with UACC-257 melanoma, in the experiment with SF-539 CNS, with SF-268 CNS, with ACHN renal and in the experiment on SK-MEL-2 melanoma was > 100 µM each time.

As for `COC1C=COC2(C)Oc3c(C)c(O)c4c(O)c(c(/C=N/N5CCN(N)CC5)c(O)c4c3C2=O)NC(=O)C(C)=CC=CC(C)C(O)C(C)C(O)C(C)C(OC(C)=O)C1C` (centres undefined), the TGI in the experiment with SNB-19 CNS, in the experiment with M14 melanoma, with UACC-257 melanoma, with SF-539 CNS, with SF-268 CNS and in the experiment with ACHN renal was > 100 µM in each case. Also, the TGI with HOP-62 NSCLC and in the experiment on SK-MEL-2 melanoma was > 100 µM in each case.

Regarding `O=S(=O)(O)c1ccc(N=Nc2c(O)ccc3cc(Br)ccc23)cc1`, the total growth inhibition concentration (TGI) in the experiment on SNB-19 CNS, in the experiment on MDA-MB-435, in the experiment with M14 melanoma, with UACC-257 melanoma, in the experiment with NCI/ADR-RES ovarian and with SF-268 CNS was > 100 µM each time. The total growth inhibition concentration (TGI) in the experiment with BT-549 breast, in the experiment with ACHN renal, in the experiment on HOP-62 NSCLC, in the experiment with SK-MEL-2 melanoma, with OVCAR-3 ovarian and in the experiment on HS 578T breast was > 100 µM each time.

In the case of `COc1cccc(/C=N/[N-]C(N)=O)c1[O-].[Ni+2].[OH3+].c1ccc(-c2ccccn2)nc1`, the total growth inhibition concentration (TGI) with M14 melanoma, in the experiment on UACC-257 melanoma, in the experiment on SF-539 CNS, in the experiment with SF-268 CNS, in the experiment with ACHN renal and with HOP-62 NSCLC was > 100 µM in each case. Besides, the TGI in the experiment on SK-MEL-2 melanoma and with OVCAR-3 ovarian was > 100 µM each time.

Take `COc1cc(OC)c(/C=C\c2cc(/C=C/c3c(OC)cc(OC)cc3OC)c3ccccc3[n+]2C)c(OC)c1`: the TGI in the experiment with SNB-19 CNS was 40 µM; with MDA-MB-435, 6.43 µM; in the experiment with M14 melanoma it was 12.7 µM; in the experiment with UACC-257 melanoma, 12.4 µM; in the experiment on SF-539 CNS it was 5.93 µM; in the experiment with NCI/ADR-RES ovarian, > 100 µM. Further, the TGI in the experiment with SF-268 CNS was 10.5 µM; in the experiment with BT-549 breast, > 24.7 µM; with ACHN renal it was 25.8 µM; in the experiment with HOP-62 NSCLC it was 16.3 µM; in the experiment with OVCAR-3 ovarian it was 6.17 µM; in the experiment with HS 578T breast, 97.9 µM.

For `S=C1CC(c2ccccc2)Sc2ccccc2N1` (centres undefined), the TGI in the experiment on SNB-19 CNS, with MDA-MB-435, in the experiment on M14 melanoma, in the experiment on UACC-257 melanoma, in the experiment with NCI/ADR-RES ovarian and in the experiment with SF-268 CNS was > 100 µM each time. Besides, the TGI with BT-549 breast is > 100 µM; in the experiment on ACHN renal, > 100 µM; in the experiment on HOP-62 NSCLC, 60.1 µM; in the experiment on OVCAR-3 ovarian it was > 100 µM; in the experiment with HS 578T breast it was > 100 µM.

On to `[O-][n+]1ccccc1S`, for which the TGI is > 100 µM in the experiment with SNB-19 CNS; > 100 µM in the experiment on MDA-MB-435; > 100 µM in the experiment on M14 melanoma; 64.4 µM in the experiment on UACC-257 melanoma; > 100 µM with SF-539 CNS; > 100 µM in the experiment with NCI/ADR-RES ovarian. The concentration for total growth inhibition (TGI) in the experiment with SF-268 CNS was > 100 µM; in the experiment on BT-549 breast, > 100 µM; with ACHN renal it was > 100 µM; with HOP-62 NSCLC it was 13.1 µM; in the experiment on SK-MEL-2 melanoma, 9.13 µM; in the experiment with OVCAR-3 ovarian it was 2.78 µM. Further, the concentration for total growth inhibition (TGI) in the experiment with HS 578T breast came to 56.4 µM. Also, the GI50 in the experiment with MDA-MB-435 is 3.17 µM; with NCI/ADR-RES ovarian, 5.17 µM; with BT-549 breast, 27.1 µM; in the experiment with HS 578T breast, 2.91 µM.

On to `CNC(=O)SCC(N)C(=O)O` (centres undefined), for which the total growth inhibition concentration (TGI) in the experiment on SNB-19 CNS, in the experiment on UACC-257 melanoma, in the experiment with SF-539 CNS, in the experiment with NCI/ADR-RES ovarian, in the experiment on SF-268 CNS and in the experiment on HOP-62 NSCLC was > 100 µM throughout. Further, the TGI with SK-MEL-2 melanoma and in the experiment on OVCAR-3 ovarian was > 100 µM each time.

As for `CCC(=O)c1ccc2[nH]c3c(C)c4c(=O)cc(C)[nH]c4c(C)c3c2c1`, the concentration for total growth inhibition (TGI) with SNB-19 CNS, in the experiment with MDA-MB-435, with M14 melanoma, with UACC-257 melanoma, with SF-539 CNS and in the experiment on NCI/ADR-RES ovarian was > 100 µM in each case. Further, the TGI in the experiment with SF-268 CNS, in the experiment on BT-549 breast, in the experiment on ACHN renal, in the experiment on HOP-62 NSCLC, with SK-MEL-2 melanoma and in the experiment with HS 578T breast was > 100 µM in each case.

In the case of `OC1CCOc2ccccc21` (centres undefined), the TGI in the experiment on SNB-19 CNS, in the experiment on M14 melanoma, in the experiment on SF-539 CNS, in the experiment with SF-268 CNS, with ACHN renal and in the experiment with HOP-62 NSCLC was > 100 µM throughout. The concentration for total growth inhibition (TGI) in the experiment with SK-MEL-2 melanoma and in the experiment with OVCAR-3 ovarian was > 100 µM each time.

Source of the values: PubChem BioAssay (NCI).
